Measurements taken from patent EP0496617B1, “Adenosine kinase inhibitors” (priority 1991, dated 1992).
Like-named read-outs stand apart in the source and are kept apart here. Each block holds one molecule with its values, some of them ahead of it.

Key:
[1] = test system: rat cardiomyocytes; conditions: inhibition of adenosine deaminase alone; cited from earlier work
[2] = test system: human umbillical vein endothelial cells; assay: Inhibition of neutrophil adherence to endothelial cells; format: cell-based; conditions: fMLP-stimulated human neutrophils, 2 hours at 37°C; reversed by adenosine deaminase; Figure 2
Description: The ability of an adenosine kinase inhibitor to affect neutrophil adherence to fibroblasts and endothelial cells was evaluated in a cell culture model.
These incubations were carried out in the presence of fMLP-stimulated human neutrophils isolated from whole blood (1.25 x 10^6/ml) with or without adenosine deaminase (0.125 U/ml). At the end of the incubation, the medium was removed and the monolayers of fibroblasts or endothelial cells and adherent neutrophils were fixed by addition of formaldehyde (3.7%) and, after washing to remove non-adherent neutrophils, adherent neutrophils were stained with Weigart's hematoxylin and counted under a light microscope.

[3] = test system: Male Swiss Webster mice; assay: PTZ-induced seizures; format: in vivo; conditions: IP at doses of 1, 5 and 10 mg/kg, 45 minutes before PTZ; Figure 4 A
Description: The ability of selected adenosine kinase inhibitors to influence PTZ-induced seizures was evaluated in an experimental animal model.
[…] After injections of the convulsant, animals were isolated in separate cages and observed for the onset of seizure.

[4] = test system: rats; assay: Electroshock-induced seizures; format: in vivo; conditions: for No. of Animals (protected/tested): 1 hour before electroshock
Description: The ability of the adenosine kinase inhibitors to influence electroshock-induced seizures was also evaluated in an experimental model.
After 1 hour, corneal electrodes were applied to the eyes of each animal and an electrical stimulus of 160 mA delivered for 0.2 seconds. Animals were isolated in separate cages and observed for seizure. Abolition of the hindleg tonic extensor component is taken as the end point for this test and reflects ability of the compound to prevent seizure spread.

[5] = test system: rat brain slices; conditions: cited from earlier work
[6] = test system: guinea pig brain slices; conditions: cited from earlier work
[7] = test system: mice; conditions: cited from earlier work
[8] = test system: anesthetized rats; conditions: cited from earlier work
[9] = target: purified pig heart adenosine kinase (Sus scrofa, UniProt A0A5G2R0F5); assay: Inhibition of adenosine kinase activity; format: biochemical
Description: Inhibition of enzyme activity was determined using a 0.1 ml assay mixture containing 50 mM Tris-maleate, pH 7.0, 0.1% (w/v) BSA, 1 mM ATP, 1 mM MgCl2, 0.5 µM [U-^14C] adenosine (500 mCi/mmol) and 0.1 µg of purified pig heart adenosine kinase. Different concentrations of the test compounds were incubated in the assay mixture for 20 min at 37°C. From each reaction mixture, 20 µl portions were removed and spotted on 2 cm^2 pieces of Whatman DE81 filter paper. The papers were then washed to remove [^14C] adenosine in 1mM ammonium formate followed by deionized water and finally 95% ethanol. The papers were dried, and [^14C]AMP measured by scintillation counting. Activities were determined from the amount of [^14C]AMP formed. This is a suitable in vitro test method for determining adenosine kinase enzyme inhibition activity.

[10] = target: T1, A1 receptor (Homo sapiens, UniProt P30542); assay: A1 receptor binding affinity ([3H]CHA, neuronal membrane); conditions: 1 nM [3H]CHA, 60 min at 37°C
T1 construct: 1 nM [^3H]CHA and 0.5 mg of neuronal membrane; from tissue
T1 sequence (P30542 1-326): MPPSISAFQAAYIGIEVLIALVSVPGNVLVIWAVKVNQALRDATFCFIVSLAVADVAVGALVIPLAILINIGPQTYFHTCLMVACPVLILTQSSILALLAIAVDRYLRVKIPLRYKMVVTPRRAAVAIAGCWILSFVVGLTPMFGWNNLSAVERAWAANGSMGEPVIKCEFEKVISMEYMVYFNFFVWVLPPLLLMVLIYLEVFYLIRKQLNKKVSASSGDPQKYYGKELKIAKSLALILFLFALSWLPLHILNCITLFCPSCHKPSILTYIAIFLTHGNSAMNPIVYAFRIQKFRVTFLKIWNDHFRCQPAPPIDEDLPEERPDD
Text: The reaction was stopped and unbound [^3H]CHA removed by rapid filtration through Whatman GF/B filters. The filter papers were then solubilized and bound [^3H]CHA determined by scintillation counting.

[11] = target: T2, calf intestinal mucosa adenosine deaminase (Bos taurus, UniProt P56658); assay: Inhibition of adenosine deaminase activity; format: biochemical; conditions: 10 min at 37°C
T2 construct: 0.002 units of calf intestinal mucosa adenosine deaminase; from tissue; host or cells: calf intestinal mucosa
T2 sequence (P56658 1-363): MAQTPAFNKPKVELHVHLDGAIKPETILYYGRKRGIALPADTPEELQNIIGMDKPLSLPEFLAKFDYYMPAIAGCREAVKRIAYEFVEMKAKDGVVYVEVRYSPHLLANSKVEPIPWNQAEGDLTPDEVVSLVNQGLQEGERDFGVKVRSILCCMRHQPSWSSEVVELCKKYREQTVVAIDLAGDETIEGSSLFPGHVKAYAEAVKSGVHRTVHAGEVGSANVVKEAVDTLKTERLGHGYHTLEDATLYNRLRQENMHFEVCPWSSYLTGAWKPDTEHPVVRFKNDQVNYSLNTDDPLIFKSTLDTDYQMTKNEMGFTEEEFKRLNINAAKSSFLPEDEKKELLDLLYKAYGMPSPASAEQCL
Description: Different concentrations of the test compounds were incubated in the assay mixture for 10 min at 37°C. The reaction was monitored continuously for oxidation of NADH from the change in absorbance at 340nm.

[12] = target: adenosine kinase (Bos taurus, UniProt A0AAA9TET8); assay: Adenosine kinase inhibition in intact cells; format: cell-based
Description: Inhibition of adenosine kinase in intact cells was determined from the amount of incorporation of radioisotope from adenosine into the adenylates (AMP, ADP and ATP) in the presence of adenosine deaminase inhibition. Capillary endothelial cells from bovine heart were incubated for 60 min. With 20 µM 2'-deoxycoformycin, a potent adenosine deaminase inhibitor. Different concentrations of the test compounds were then added to the cells and incubated for 15 min. after which 5 µM [^3H]adenosine was added and the cells incubated for a further 15 min. The media was then discarded and the cells were treated with 50 µl 0.4 M perchloric acid, centrifuged and the supernatants neutralized with 100 µl alanine: freon (1:4). Radiosotope-labelled adenylates were separated by TLC on PEI cellulose plates developed in methanol:water (1:1) and incorporation of ^3H determined by scintillation counting.

[13] = test system: Isolated guinea pig hearts; assay: Functional recovery in isolated hearts after low flow ischemia (Langendorff); conditions: Conc. 0.3 ( M) in perfusion buffer; for Functional Recovery (% preischemic LVDP): 45 minutes low flow ischemia, 30 minutes reperfusion
Description: The ability of a number of adenosine kinase inhibitors to improve the recovery of post-ischemic function was examined in an isolated guinea pig heart model.
Isolated guinea pig hearts were cannulated via the ascending aorta and attached to a perfusion apparatus according to the method of Langendorff. The hearts were perfused at a constant pressure of 60 cm of H2O with a modified Krebs-Hanseleit buffer (pH 7.4) at 37°C. Left ventricular developed pressures (LVDP) were monitored continuously using a latex balloon attached to a pressure transducer. Coronary flows were measured gravimetrically by timed collection of pulmonary effluent. Following equilibration of the hearts for a period of 30 minutes, the hearts were subjected to 45 minutes of low flow ischemia, by reducing the perfusion pressure to 10 cm of H2O, and then reperfused for 30 minutes by restoring the pressure to its. original level (60 cm of H2O). The adenosine kinase inhibitors GP-1-238, GP-1-515 and GP1-547 were added to the perfusion buffer at the final concentrations specified. […] TABLE A

[14] = test system: Anesthetized male dogs; assay: Preclinical model of stable angina (pacing-induced ischemia); format: in vivo
Description: GP-1-515, was evaluated for its ability to prevent cumulative cardiac dysfunction associated with repeated episodes of pacing-induced ischemia.
Anesthetized male dogs were instrumented to measure regional myocardial wall thickening during right atrial pacing (Young & Mullane, Am. J. Physio., 1991, 261:1570-1577). Animals were subjected to six repeated episodes of pacing. A continuous IV infusion of […] of GP-1-515 or saline (control) -was administered post pace #1. […] TABLE B

[15] = test system: platelet-induced coronary thrombosis; assay: Canine model of platelet-induced coronary thrombosis (Folts, cyclic flow reductions); format: in vivo
Description: GP-1-515 was tested in a canine model of platelet-induced coronary thrombosis (Folts, J., Circulation, 1991, 83[Suppl. IV]:IV-3-IV-14). In this model, platelets cyclically aggregate and embolize causing cyclic flow reductions (CFRs) that are quantitated by the frequency and the change in coronary blood flow from low point to peak with each cycle. […] TABLE C

[16] = test system: guinea pig ileum; assay: Inhibition of contraction in isolated ileum; conditions: electrically stimulated; reversal by 8SPT and ADA; Figure 3
Description: The ability of adenosine kinase inhibition to affect stimulated contraction of muscle strips from the isolated ileum has been investigated.
Parallel platinum electrodes were used to deliver electrical current at 1 minute intervals at a voltage adequate to induce contraction of 90% of maximal. The adenosine kinase inhibitors, GP-1-515 or GP-1-547 were added to the tissue baths at different concentrations, with or without either the adenosine receptor antagonist, 8-sulphophenyltheophylline (8SPT) or adenosine deaminase (ADA), and the effects on contraction monitored.

[17] = in human blood; cited from earlier work
[18] = read-out: IC50 in the adenosine kinase inhibition assay

Chain of purified pig heart adenosine kinase (A0A5G2R0F5 1-362): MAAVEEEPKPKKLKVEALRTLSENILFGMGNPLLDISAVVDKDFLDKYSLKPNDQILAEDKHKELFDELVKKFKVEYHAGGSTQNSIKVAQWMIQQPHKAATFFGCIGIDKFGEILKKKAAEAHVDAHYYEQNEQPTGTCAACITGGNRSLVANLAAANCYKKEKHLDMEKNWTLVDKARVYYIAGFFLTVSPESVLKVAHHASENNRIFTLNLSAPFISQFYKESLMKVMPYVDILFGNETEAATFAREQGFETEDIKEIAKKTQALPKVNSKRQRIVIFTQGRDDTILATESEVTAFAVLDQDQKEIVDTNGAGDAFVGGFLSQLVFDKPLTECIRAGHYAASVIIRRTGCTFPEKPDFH
Chain of adenosine kinase (A0AAA9TET8 1-345): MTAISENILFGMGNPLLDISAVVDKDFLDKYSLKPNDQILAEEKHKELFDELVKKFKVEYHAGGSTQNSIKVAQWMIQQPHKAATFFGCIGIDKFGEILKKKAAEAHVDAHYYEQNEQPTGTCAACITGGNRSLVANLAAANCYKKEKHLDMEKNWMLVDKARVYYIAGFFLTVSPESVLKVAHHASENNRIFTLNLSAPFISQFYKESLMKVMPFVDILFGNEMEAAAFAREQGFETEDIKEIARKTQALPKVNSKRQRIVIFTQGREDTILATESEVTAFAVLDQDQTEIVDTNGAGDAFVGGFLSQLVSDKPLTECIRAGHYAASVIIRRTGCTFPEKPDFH

SMILES: OC[C@H]1O[C@@H](n2cnc3c2N=CNC[C@H]3O)C[C@@H]1O [2'-deoxycoformycin]
adenosine release from the cells [1]: no effect on adenosine release

SMILES: CNc1ncnc2c1ncn2[C@@H]1O[C@H](CN)[C@@H](O)[C@H]1O [GP-1-272]
neutrophil adhesion to endothelial cells [2]: inhibit neutrophil adhesion to endothelial cells

SMILES: C[C@H]1O[C@@H](n2cc(I)c3c(N)ncnc32)[C@H](O)[C@@H]1O [GP-1-456, 5'-deoxy-5-iodotubercidin]
neutrophil adhesion to endothelial cells [2]: inhibit neutrophil adhesion to endothelial cells
PTZ induced seizures [3]: dose-dependent inhibition
No. of Animals (protected/tested) ([4]; 0.05 mg/kg orally): 1/8
No. of Animals (protected/tested) ([4]; 0.10 mg/kg orally): 2/8
ED50 ([4]; Rattus norvegicus, po, 1 h, orally, rats, from the data of Table E, read-out: ED50 for protection of electroshock-induced seizures): 0.18 mg/kg
adenosine uptake [5]: inhibited
adenosine uptake [6]: inhibited
body temperature [7]: hypothermia
flaccidity and spontaneous locomotor activity [7]: pronounced general flaccidity and much-reduced spontaneous locomotor activity
blood pressure and heart rate [8]: decrease blood pressure and heart rate

SMILES: NC[C@H]1O[C@@H](n2nc(Br)c3c(N)ncnc32)[C@H](O)[C@@H]1O [GP-1-515]
IC50 [9]: < 10 nM
IC50 [10]: > 100 µM
IC50 [11]: > 1 mM
IC50 ([12]; Capillary endothelial cells from bovine heart, 20 µM 2'-deoxycoformycin; read-out: IC50 in the adenosine kinase inhibition assay in intact cells): 9 nM
Preischemic Flow [13]: 6.5 ± 0.3 mL/min/g
Functional Recovery (% preischemic LVDP) [13]: 79.0 ± 3.4 % preischemic LVDP
% of Non-Ischemic Wall Thickening ([14]; Pace # 1 (infusion started post pace #1)): 39.8 ± 3.2%
% of Non-Ischemic Wall Thickening ([14]; Pace # 2, continuous IV infusion of 1 g/kg/min): 43.6 ± 12.0%
% of Non-Ischemic Wall Thickening ([14]; Pace # 3, continuous IV infusion of 1 g/kg/min): 34.0 ± 19.0%
% of Non-Ischemic Wall Thickening ([14]; Pace # 4, continuous IV infusion of 1 g/kg/min): 50.5 ± 21.3%
% of Non-Ischemic Wall Thickening ([14]; Pace # 5, continuous IV infusion of 1 g/kg/min): 75.6 ± 19.4%
% of Non-Ischemic Wall Thickening ([14]; Pace # 6, continuous IV infusion of 1 g/kg/min): 62.6 ± 17.1%
(N abolished)/(N total) ([15]; 0.03 (dose, unit not given)): 1/8
CFR (D flow) ([15]; 0.03 (dose, unit not given)): 10.1 ± 2.6 (n=7)
CFR (freq.) ([15]; 0.03 (dose, unit not given)): 3.0 ± 0.6 (n=7)
(N abolished)/(N total) ([15]; 0.1 (dose, unit not given)): 3/8
CFR (D flow) ([15]; 0.1 (dose, unit not given)): 11.0 ± 2.1 (n=5)
CFR (freq.) ([15]; 0.1 (dose, unit not given)): 3.4 ± 0.8 (n=5)
(N abolished)/(N total) ([15]; 0.3 (dose, unit not given)): 3/8
CFR (D flow) ([15]; 0.3 (dose, unit not given)): 14.1 ± 1.9 (n=5)
CFR (freq.) ([15]; 0.3 (dose, unit not given)): 4.2 ± 0.6 (n=5)
CFRs abolished (animals) ([15]; summary): 3 of 8
contraction of longitudinal muscle of the ileum [16]: Inhibition of contraction

SMILES: NC[C@H]1O[C@@H](n2nc(I)c3c(N)ncnc32)[C@H](O)[C@@H]1O [GP-1-547]
Preischemic Flow [13]: 6.2 ± 0.3 mL/min/g
Functional Recovery (% preischemic LVDP) [13]: 79.0 ± 3.1 % preischemic LVDP
contraction of longitudinal muscle of the ileum [16]: Inhibition of contraction

IC50 [9, 18]: < 10 nM
SMILES: NC[C@H]1O[C@@H](n2cc(Br)c3c(Cl)ncnc32)[C@H](O)[C@@H]1O [GP-1-608, 7-(5-Amino-5-deoxy-1-β-D-ribofuranosyl)-5-bromo-4-chloropyrrolo [2,3-d]pyrimidine]

SMILES: C[C@H]1O[C@@H](n2nc(-c3ccccc3)c3c(Nc4ccccc4)ncnc32)[C@H](O)[C@@H]1O [GP-1-665]
IC50 [9, 18]: < 10 nM
IC50 ([12]; read-out: IC50 in the adenosine kinase inhibition assay in intact cells; Capillary endothelial cells from bovine heart, 20 µM 2'-deoxycoformycin): 4.5 nM

IC50 [9, 18]: < 10 nM
SMILES: [N-]=[N+]=NC[C@H]1O[C@@H](n2nc(-c3ccccc3)c3c(Nc4ccccc4)ncnc32)[C@H](O)[C@@H]1O [GP-1-667]

SMILES: OC[C@H]1O[C@@H](n2nc(-c3ccccc3)c3c(Nc4ccccc4)ncnc32)[C@H](O)[C@@H]1O [GP-1-695]
IC50 [9, 18]: < 10 nM

SMILES: NC[C@H]1O[C@@H](n2nc(-c3ccccc3)c3c(Nc4ccccc4)ncnc32)[C@H](O)[C@@H]1O [GP-1-704]
IC50 [9, 18]: < 10 nM

SMILES: Nc1ncnc2c1ncn2[C@@H]1O[C@H](CO)[C@@H](O)[C@H]1O [adenosine]
half life [17]: < 1 s
